Measurements taken from patent publication US20240391877A1, “COMPOUND AS INHIBITOR OF COMPLEMENT FACTOR D, AND PHARMACEUTICAL COMPOSITION AND USE THEREOF” (WUHAN CREATERNA SCIENCE AND TECHNOLOGY CO.,LTD., priority 2021, published 2024).
pIC50: −log10 of the molar value.

How the values were obtained:
[1] = molecular target: T1, complement factor D (Homo sapiens, UniProt P00746); experiment: Complement factor D inhibitory activity (C3b method) in vitro screening; product Bb detected by ELISA; assay type: biochemical; conditions: factor D + factor B + factor C3b, 37° C., Bb by MicroVue Bb Plus ELISA
T1 construct: purchased Complement tech
T1 sequence (P00746 26-253): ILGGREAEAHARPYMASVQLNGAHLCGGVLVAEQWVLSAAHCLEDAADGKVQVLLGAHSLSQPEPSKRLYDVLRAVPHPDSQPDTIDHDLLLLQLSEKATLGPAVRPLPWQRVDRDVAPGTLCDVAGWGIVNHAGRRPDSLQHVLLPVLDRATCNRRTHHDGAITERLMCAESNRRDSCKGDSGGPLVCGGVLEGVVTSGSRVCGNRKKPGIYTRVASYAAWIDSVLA
Excerpt: 1. Complement Factor D Inhibitory Activity (C3b Method) In Vitro Screening Experiment
V-bottom plate (AXYGEN), DMSO (Sigma), MicroVue Bb Plus ELISA kit (Quidel), complement factor C3b (abbreviated as factor C3b, Complement tech), complement factor B (abbreviated as factor B, Complement tech), complement factor D (abbreviated as factor D, Complement tech), EDTA (MACKLIN), GVB^o (Complement tech), EGTA (Aladdin), MgCl2 (Aladdin), NaOH (Sinopharm), microplate reader (Molecular Devices, SpectraMax i3x), microplate thermostatic shaker (Thermo, MB100-2A), pipette (Gilson)
0.1 M Mg-EGTA: 3.8 g of EGTA, 0.9521 g of MgCl2, and 0.7 g of NaOH were weighed, and the pH was adjusted to 7.5 with NaOH. Distilled water was added to make up to 100 mL, and the mixture was filtered with a […] sterile needle filter, stored in portions at 4° C.
Buffer: 0.1 M Mg-EGTA solution was diluted 10-fold to 10 mM with GVB^o buffer; • factor B working solution: 1 mg/mL factor B solution (10.75 μM) was diluted 6.7-fold to 1.6 μM with buffer; • factor C3b working solution: 1 mg/mL factor C3b solution (5.68 μM) was diluted 5-fold to […] with buffer; • factor D working solution: 0.1 mg/mL factor D solution (4.17 μM) was diluted 1303-fold to 3.2 nM with buffer.
Note: a. The above dilution multiples are for reference only and are adjusted according to the true concentration labeled on the reagent; • b. factor B: 93 KDa, factor D: 24 KDa, factor C3b: 176 KDa.
Stop solution: An appropriate amount of EDTA powder was weighed, dissolved in a certain amount of GVB^o buffer, and the pH was adjusted to 7.5 with NaOH. The mixture was stirred until clear and prepared into a 10 mM solution.
Compound stock solution: 40 mM compound solution was diluted with DMSO into 1 mM stock solution, and the 1 mM stock solution was diluted 3-fold with DMSO at 8 points to prepare compound stock solutions of various concentrations.
Compound working solution: diluted 250-fold with buffer to obtain compound solutions of various concentrations.
In the V-bottom plate, the experimental group was added with 10 μL of factor D solution and 10 μL of compound solution; the positive control group was added with 10 μL of factor D solution and buffer containing 0.4% DMSO; the blank control group was added with […] containing 0.2% DMSO; incubated at 37° C. for 15 min; the factor B working solution and the factor C3b working solution were mixed homogeneously at a ratio of 1:1; 20 µL of the mixture was added to each well and incubated at 37° C. for 30 min; the reaction was stopped by adding 40 μL of stop solution; the production of product Bb was detected by MicroVue Bb Plus ELISA kit.
1.4.1 The required wells of the ELISA plate were taken out and allowed to return to room temperature, and the remaining ones were repackaged and stored at 4° C.;
1.4.2 the wells were washed twice with 300 μL of 1× wash buffer, and incubated for 1 min at 25° C. for the first wash;
1.4.3 samples were diluted 8-fold with complement specimen diluent, and 100 μL of sample was added to each well and incubated at 25° C. for 30 min;
1.4.4 the liquid in the wells was discarded, and the wells were washed 5 times with 300 μL of 1× wash buffer, and incubated at room temperature for 1 min for the first wash;
1.4.5 50 μL of Bb Plus Conjugate was added to each well and incubated at 25° C. for 30 min;
1.4.6 the liquid in the wells was discarded, and the wells were washed 5 times with 300 μL of 1× wash buffer, and incubated at room temperature for 1 min for the first wash;
1.4.7 100 μL of […] (Substrate Solution) was added to each well and incubated at 25° C. for 15 min;
1.4.8 100 μL of stop solution was added to each well, and the absorbance was detected at 450 nm within 30 min.
1.5.1 Inhibition rate of each drug concentration:
The PC group represents 0% inhibition rate, and the NC group represents 100% inhibition rate. […]

[2] = tested on: hemolysis of rabbit erythrocytes; experiment: Rabbit erythrocyte hemolysis assay to evaluate inhibitory activity on the bypass pathway; assay type: cell-based; conditions: Oryctolagus cuniculus, 0.5 h, 48% NHP or 26.4% NHS, 37° C. 30 min, absorbance 415 nm
Excerpt: 2. Rabbit Erythrocyte Hemolysis Assay to Evaluate the Inhibitory Activity of Compounds on the Bypass Pathway
Normal Human Serum, NHS (collected from healthy people), Normal Human Plasma, NHP (Shanghai Yuduo), 96-well ELISA plate (Jet Biofil), Japanese big-eared white rabbit (Wuhan WQJX), Alsever's solution (Procell), centrifuge (Thermo, PICO17), thermostatic shaker (Shanghai Fuma), destaining shaker (Beijing Liuyi), cell counter (Invitrogen, Counter Countess II) (GVB^o, EGTA, MgCl2, NaOH, microplate reader, microplate thermostatic shaker, and pipette are equivalent to those in the experiment 1).
48% NHP: 100% NHP was diluted to 48% with buffer;
26.4% NPS: 100% NHS was diluted to 26.4% with buffer;
rabbit erythrocyte suspension: blood was taken from rabbit ear marginal vein, anticoagulated with Alsever's solution at a ratio of 1:1, stored in portions at 4° C., and could be stored for 4 weeks. Before use, the suspension was centrifuged at 500 g for 5 min to discard the Alsever's solution, washed three times with an equal volume of buffer and centrifuged at 500 g for 5 min, and finally the density was adjusted to 6×10^8 cells/mL with buffer.
In the 96-well ELISA plate, the experimental group was added with 50 μL of 48% NHP or 26.4% NHS and 50 μL of compound solution; the positive control group was added with 50 μL of 48% NHP or 26.4% NHS and 50 μL of buffer containing 0.2% DMSO; the blank control group was added with 50 μL of 48% inactivated NHP or 26.4% inactivated NHS and 0.2% DMSO buffer; the H2O group was added with 100 μL of double-distilled water; incubated at 37° C. for 15 min; 20 μL of rabbit erythrocyte suspension was added to each well and incubated on a shaker at 37° C. for 30 min; centrifuged at 2000 g (3380 rpm) for 5 min, and […] of supernatant was transferred to a new 96-well ELISA plate, and the absorbance was detected at 415 nm.
The PC group represents 100% hemolysis, and the NC group represents 0% hemolysis.
IC50: half-maximal inhibitory concentration. Data were collected to calculate the log value of hemolysis percentage versus compound concentration, and IC50 values were calculated using GraphPad Prism software.

| Structure (SMILES) | pIC50 [1] | pIC50 [2] |
| --- | --- | --- |
| NCc1cccc(-c2cc(COc3ccccc3CC(=O)O)cc(N3CC4CCC(C4)C3)c2)c1 [Compound 006, 2-(2-((3′-(aminomethyl)-5-(3-azabicyclo[3.2.1]octan-3-yl)-′[1,1′-biphenyl]-3-yl)methoxy)phenyl)acetic acid] | 8.40 | 7.27 |
| NCc1cc(F)cc(-c2cc(COc3ccccc3CC(=O)O)cc(N3CCC4(CC3)CC4)c2)c1 [Compound 008, 2-(2-((3′-(aminomethyl)-5′-fluoro-5-(6-azaspiro[2.5]octan-6-yl)-[1,1′-biphenyl]-3-yl)methoxy)phenyl)acetic acid] | 7.74 | 6.71 |
| NCc1cccc(-c2cc(COc3ccccc3CC(=O)O)cc(N3CCC4(CC3)COC4)c2)c1 [Compound 011, 2-(2-((3′-(aminomethyl)-5-(2-oxa-7-azaspiro[3.5]nonan-7-yl)-[1,1′-biphenyl]-3-yl)methoxy)phenyl)acetic acid] | 7.74 | 7.89 |
| NCc1cccc(-c2cc(COc3ccccc3CC(=O)O)cc(N3CCC4(CCO4)CC3)c2)c1 [Compound 012, 2-(2-((3′-(aminomethyl)-5-(1-oxa-7-azaspiro[3.5]nonan-7-yl)-[1,1′-biphenyl]-3-yl)methoxy)phenyl)acetic acid] | 8.22 | 8.40 |
| NCc1cccc(-c2cc(COc3ccccc3CC(=O)O)cc(N3CCC4(CC3)CC(O)C4)c2)c1 [Compound 013, 2-(2-((3′-(aminomethyl)-5-(2-hydroxy-7-azaspiro[3.5]nonan-7-yl)-[1,1′-biphenyl]-3-yl)methoxy)phenyl)acetic acid] | 7.96 | 7.55 |
| NCc1cccc(-c2cc(COc3ccccc3CC(=O)O)cc(N3CCC4(CCOC4)CC3)c2)c1 [Compound 014, 2-(2-((3′-(aminomethyl)-5-(2-oxa-8-azaspiro[4.5]decan-8-yl)-[1,1′-biphenyl]-3-yl)methoxy)phenyl)acetic acid] | 7.85 | 8.00 |
| NCc1cccc(-c2cc(COc3ccccc3CC(=O)O)cc(N3CCOC4(CC4)C3)c2)c1 [Compound 016, 2-(2-((3′-(aminomethyl)-5-(4-oxa-7-azaspiro[2.5]octan-7-yl)-[1,1′-biphenyl]-3-yl)methoxy)phenyl)acetic acid] | 7.59 | 7.72 |
| NCc1cccc(-c2cc(COc3ccccc3CC(=O)O)cc(N3CC4(CCCC4)C3)c2)c1 [Compound 017, 2-(2-((3′-(aminomethyl)-5-(2-azaspiro[3.4]octan-2-yl)-[1,1′-biphenyl]-3-yl)methoxy)phenyl)acetic acid] | 8.22 | 7.19 |
| NCc1cccc(-c2cc(COc3cc(F)ccc3CC(=O)O)cc(N3CCC4(CC3)CC4)c2)c1F [Compound 021, 2-(2-((3′-(aminomethyl)-2′-fluoro-5-(6-azaspiro[2.5]octan-6-yl)-[1,1′-biphenyl]-3-yl)methoxy)-4-fluorophenyl)acetic acid] | 7.96 | 7.19 |
| NCc1cccc(-c2cc(COc3ccccc3CC(=O)O)cc(N3CCC4(CC3)COC4)c2)c1F [Compound 024, 2-(2-((3′-(aminomethyl)-2′-fluoro-5-(2-oxa-7-azaspiro[3.5]nonan-7-yl)-[1,1′-biphenyl]-3-yl)methoxy)phenyl)acetic acid] | 8.40 | 7.57 |
| NCc1cccc(-c2cc(COc3ccc(F)cc3CC(=O)O)cc(N3CCC4(CC3)COC4)c2)c1F [Compound 025, 2-(2-((3′-(aminomethyl)-2′-fluoro-5-(2-oxa-7-azaspiro[3.5]nonan-7-yl)-[1,1′-biphenyl]-3-yl)methoxy)-5-fluorophenyl)acetic acid] | 8.15 | 7.92 |
| NCc1cccc(-c2cc(COc3ccccc3CC(=O)O)cc(N3CCC4(CCOCC4)CC3)c2)c1 [Compound 029, 2-(2-((3′-(aminomethyl)-5-(3-oxa-9-azaspiro[5.5]undecan-9-yl)-[1,1′-biphenyl]-3-yl)methoxy)phenyl)acetic acid] | 8.22 | 8.00 |
| NCc1cccc(-c2cc(COc3ccccc3CC(=O)O)cc(N3CCC4(CCCOC4)CC3)c2)c1 [Compound 030, 2-(2-((3′-(aminomethyl)-5-(2-oxa-9-azaspiro[5.5]undecan-9-yl)-[1,1′-biphenyl]-3-yl)methoxy)phenyl)acetic acid] | 8.40 | 7.66 |
| NCc1cccc(-c2cc(COc3ccccc3CC(=O)O)cc(N3CC4(CCOC4)C3)c2)c1 [Compound 031, 2-(2-((3′-(aminomethyl)-5-(6-oxa-2-azaspiro[3.4]octan-2-yl)-[1,1′-biphenyl]-3-yl)methoxy)phenyl)acetic acid] | 8.52 | 8.22 |
| CN1CC2(CCN(c3cc(COc4ccccc4CC(=O)O)cc(-c4cccc(CN)c4)c3)CC2)C1 [Compound 032, 2-(2-((3′-(aminomethyl)-5-(2-methyl-2,7-diazaspiro[3.5]nonan-7-yl)-[1,1′-biphenyl]-3-yl)methoxy)phenyl)acetic acid] | 8.00 | 8.10 |
| NCc1cccc(-c2cc(COc3ccccc3CC(=O)O)cc(N3CCC4(CCNCC4)CC3)c2)c1 [Compound 033, 2-(2-((3′-(aminomethyl)-5-(3,9-diazaspiro[5.5]undecan-3-yl)-[1,1′-biphenyl]-3-yl)methoxy)phenyl)acetic acid] | 8.70 | 8.52 |
| NCc1cccc(-c2cc(COc3ccccc3CC(=O)O)cc(N3CCC4(CCCC4)C3)c2)c1 [Compound 034] | 9.00 | 7.96 |
